Laboratory results reported in US10058563B2, “System and method for diagnosis and treatment” (Pop Test Oncology Limited Liability Company, priority 2011, dated 2018).
Values after ≈ are worked out from the molar mass of the structure shown. Like-named read-outs stand apart in the source and are kept apart here.

How the values were obtained:
[1] = tested on: TNBC (Triple Negative Breast Cancer; MDA-MB-231) cells; assay: Xenografted breast tumor growth, ORG 34517 plus Taxol (Example 1); format: in vivo, CB-17 SCID mice; conditions: for relative tumor growth: N=3, control Veh/Veh 379%
Description: This study is performed to obtain evidence for enhancement of chemotherapy sensitivity of GR+/ER−/PR−/Her2-neu− breast cancer cells by blocking stress-mediated cell survival pathways with a GR antagonist. In the present pilot study, the GR antagonist ORG 34517, is investigated, in one dose, in combination with the chemotherapeutic agent Taxol. Both the Taxol and ORG 34517 doses are selected based on previous experiments.
Materials and Methods—1×107 TNBC (Triple Negative Breast Cancer; MDA-MB-231) cells in 50 ul of PBS (phosphate buffered saline) are injected into the mammary fat pad of 4-5 week old CB-17 SCID mice (Taconic Labs). The mice are allowed to form xenografted breast tumors of approximately 200 mm3 volume. When tumors reach an average of 200 mm3 (Week “0”), 15 mice are separated into the 3 treatment groups 1) vehicle, 2) paclitaxel (Taxol), 3) ORG 34517+ paclitaxel. The used paclitaxel dose is 10 mg/kg/day dissolved in Ethanol/Sesame Oil; ORG 34517 is administered in the maximum soluble dose of 20.5 mg/kg/day dissolved in Ethanol/Castor Oil. The mice receive intraperitoneal injections (200 ul) of drugs for 5 consecutive days (day 1-5). Tumors are measured three times per week. Tumor size is both expressed as absolute volume and as relative growth in comparison to baseline (day 0).
Results—Treatment of the animals is started when the tumor has a volume of at least 100 mm3. The total experimental group consisted of 15 animals. In 6 animals the tumor growth was considered not sufficient. […] In the control situation the tumor grows within 13 days with about 800 mm3 (see raw data). To correct for baseline differences, for each animal the relative tumor growth is calculated. Relative growth is defined as (tumor size day x−tumor size day 0)/tumor size day 0. Group averages for the relative tumor growth are depicted in FIG. 1. In the control condition (VehlVeh) the relative growth is 379%. […] A further reduction of the growth is induced by the addition of ORG 34517 (517/Taxo). The relative growth of this latter group is 100%.
A repeated measures ANOVA did reveal a significant time-effect (F5,36)=2.73; p=0.035), a significant treatment effect (F(2,36)=26.86; p=0.000) and a significant interaction (F(10,36)=2.36; p=0.029). […] This statistical analysis should be considered explorative because of the pilot nature of the study.

[2] = disclosed in U.S. Pat. No. 6,011,025; cited from earlier work
[3] = tested on: mineralocorticoid, progesterone, estrogen and androgen receptors; conditions: such as those for estrogen and progesterone; cited from earlier work
[4] = tested on: ER-GR+ human breast cancer cells; assay: Tumor volume in mice implanted with ER-GR+ breast cancer cells (Example 2); format: in vivo; conditions: i.p. vehicle alone vs Paclitaxel alone vs Paclitaxel and ORG 34517; 3 mice per group
Text: (§1) As tumor volume in each mouse approached the test threshold of 200 mm3, the mice were randomized to receive intraperitoneal injections of vehicle alone, chemotherapy (Paclitaxel) alone, and chemotherapy and ORG 34517. Each group contained 3 mice.
as §1, with “Mice were implanted with cultured ER-GR+ human breast cancer cells. As” for “As”

[5] = all phase I and phase II clinical trials performed with the compound; cited from earlier work
[6] = biological target: T1, glucocorticoid receptor (Homo sapiens, UniProt P04150); conditions: disclosed in U.S. Pat. No. 6,011,025; cited from earlier work
T1 sequence (P04150 1-777): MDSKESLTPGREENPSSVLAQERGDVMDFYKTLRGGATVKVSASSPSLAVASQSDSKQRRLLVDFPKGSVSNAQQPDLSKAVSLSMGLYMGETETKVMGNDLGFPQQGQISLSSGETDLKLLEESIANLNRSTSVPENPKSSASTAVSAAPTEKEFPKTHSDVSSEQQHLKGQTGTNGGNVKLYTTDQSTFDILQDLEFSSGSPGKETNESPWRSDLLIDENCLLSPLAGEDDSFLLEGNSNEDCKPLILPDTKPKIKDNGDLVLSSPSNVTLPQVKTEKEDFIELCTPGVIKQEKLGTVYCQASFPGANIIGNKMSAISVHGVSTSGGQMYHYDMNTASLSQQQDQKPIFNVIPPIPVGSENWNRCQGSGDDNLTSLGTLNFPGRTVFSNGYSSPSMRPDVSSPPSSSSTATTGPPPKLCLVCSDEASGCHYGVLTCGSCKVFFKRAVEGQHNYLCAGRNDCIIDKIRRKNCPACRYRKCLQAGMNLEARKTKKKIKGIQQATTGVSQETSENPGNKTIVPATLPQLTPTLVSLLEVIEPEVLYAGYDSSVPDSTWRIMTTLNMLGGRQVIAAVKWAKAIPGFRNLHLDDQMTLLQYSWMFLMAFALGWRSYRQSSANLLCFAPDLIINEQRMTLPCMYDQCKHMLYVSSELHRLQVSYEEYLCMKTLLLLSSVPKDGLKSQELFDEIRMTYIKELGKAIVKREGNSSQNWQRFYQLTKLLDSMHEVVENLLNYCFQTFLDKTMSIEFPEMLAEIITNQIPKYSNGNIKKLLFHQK

[7] = Behaviour in conventional dosage forms (capsule or tablet); format: in vivo; conditions: like a capsule or a tablet
Text: Another dosage form than a conventional tablet or capsule may be able to circumvent these issues.

[8] = Solubility in different solvents; format: physicochemical
Description: The solubility of (11β,17β)-11-(1,3-benzodioxol-5-yl)-17-hydroxy-17-(1-propynyl)estra-4,9-dien-3-one is determined in different solvents. These solutions can be of use for clinical treatment with the advantages as mentioned above.

CC#C[C@]1(O)CC[C@H]2[C@@H]3CCC4=CC(=O)CCC4=C3[C@@H](c3ccc4c(c3)OCO4)C[C@@]21C [ORG 34517, (11β,17β)-11-(1,3-benzodioxol-5-yl)-17-hydroxy-17-(1-propynyl) estra-4,9-dien-3-one]
tumor growth in comparison to Veh/Taxo treatment ([1]; 517/Taxo, all three animals, individual scores): decreased tumor growth
relative tumor growth ([1]; ORG 34517 20.5 mg/kg/day + Taxol 10 mg/kg/day i.p. day 1-5 (517/Taxo)): 100%
animals with tumor shrinkage during treatment ([1]; ORG 34517 20.5 mg/kg/day + Taxol 10 mg/kg/day i.p. for 5 days): 2 out of 3
effect on the chemotherapeutic effect of Taxol ([1]; ORG 34517 i.p. 20.5 mg/kg/day for 5 days): potentiated the chemotherapeutic effect of Taxol
androgenic and progestagenic activities [2]: low
cross-binding to other related steroidal hormone receptors [3]: without significant cross-binding
attained tumor volume [4]: significant differences in attained tumor volume
significant toxicities and side effects [5]: none were identified
glucocorticoid receptor binding affinity [6]: high
exposure behaviour [7]: low exposure, high dose variability, large food effect and non-dose linearity
solubility ([8]; Arachis oil): 2.46 mg/g
solubility ([8]; Benzylalcohol): 390 mg/g
solubility ([8]; Castor oil): 7.38 mg/g
solubility ([8]; Castor oil:benzylbenzoate (90:10)): 15.0 mg/g
solubility ([8]; Castor oil:propylene glycol laurate (0.55:0.45; v:v)): 9.4 mg/g
solubility ([8]; Corn oil): 2.58 mg/g
solubility ([8]; Cremophor EL): 23 mg/g
solubility ([8]; Gelicure 44/14, oil or lipid, read-out: Solubility): 100000 µg/mL (≈ 232000 µM)
solubility ([8]; Glucofurol:water (50:50), aqueous with cosolvent or surfactant or cyclodextrin, read-out: Solubility): 700 µg/mL (≈ 1630 µM)
solubility ([8]; Glycoferol, organic solvent or mixture, read-out: Solubility): 118000 µg/mL (≈ 274000 µM)
solubility ([8]; HPβCD, 10% in water, aqueous with cosolvent or surfactant or cyclodextrin, read-out: Solubility): 207 µg/mL (≈ 481 µM)
solubility ([8]; HPβCD, 20% in water, aqueous with cosolvent or surfactant or cyclodextrin, read-out: Solubility): 395 µg/mL (≈ 917 µM)
solubility ([8]; HPβCD, 40% in water, aqueous with cosolvent or surfactant or cyclodextrin, read-out: Solubility): 800 µg/mL (≈ 1860 µM)
solubility ([8]; Medium Chain monoglyceride/glycerol monocaprylate): 28 mg/g
solubility ([8]; Miglyol 812): 4.5 mg/g
solubility ([8]; Mulgofen:water (5:95), aqueous with cosolvent or surfactant or cyclodextrin, read-out: Solubility): 2000 µg/mL (≈ 4650 µM)
solubility ([8]; Olive oil): 2.26 mg/g
solubility ([8]; PEG 400, organic solvent or mixture, read-out: Solubility): 34400 µg/mL (≈ 79900 µM)
solubility ([8]; PEG 400:water (60:40), aqueous with cosolvent or surfactant or cyclodextrin, read-out: Solubility): 0.6 µg/mL (≈ 1.39 µM)
solubility ([8]; PEG 1500, organic solvent or mixture, read-out: Solubility): 37000 µg/mL (≈ 85900 µM)
solubility ([8]; Polysorbate in water (0.5%)): <LOD
solubility ([8]; Soy oil): 2.70 mg/g
solubility ([8]; Span 80): 7 mg/g
solubility ([8]; TPGS:PEG 400:propyleneglycol (12:17:55), organic solvent or mixture, read-out: Solubility): 700 µg/mL (≈ 1630 µM)
solubility ([8]; TPGS:PEG 400:propyleneglycol (20:60:5), organic solvent or mixture, read-out: Solubility): 900 µg/mL (≈ 2090 µM)
solubility ([8]; acetone, organic solvent or mixture, read-out: Solubility): > 10000 µg/mL
solubility ([8]; acetonitrile, organic solvent or mixture, read-out: Solubility): > 10000 µg/mL
solubility ([8]; aqueous with cosolvent or surfactant or cyclodextrin, TPGS:d-Alpha Tocopheryl Polyethylene Glycol 1000 Succinate (20%, as delivered), read-out: Solubility): 1100 µg/mL (≈ 2550 µM)
solubility ([8]; dimethylsulfoxide, organic solvent or mixture, read-out: Solubility): > 100000 µg/mL
solubility ([8]; dog bile:phosphate buffer (1:1), plasma or biological fluid, Dog bile:phosphate buffer (pH = 6.5) (1:1), read-out: Solubility): ~80 µg/mL (≈ 186 µM)
solubility ([8]; ethanol, organic solvent or mixture, read-out: Solubility): > 10000 µg/mL
solubility ([8]; ethanol:PEG 400:propylene glycol (10:50:40), organic solvent or mixture, read-out: Solubility): 28600 µg/mL (≈ 66400 µM)
solubility ([8]; ethanol:PEG 400:propylene glycol:water (10:40:40:10), aqueous with cosolvent or surfactant or cyclodextrin, read-out: Solubility): 14000 µg/mL (≈ 32500 µM)
solubility ([8]; methanol, organic solvent or mixture, read-out: Solubility): > 10000 µg/mL
solubility ([8]; propylene glycol, organic solvent or mixture, read-out: Solubility): 8900 µg/mL (≈ 20700 µM)
solubility ([8]; water with sodium lauryl sulphate 0.5% w/v, aqueous with cosolvent or surfactant or cyclodextrin, Water-Sodium lauryl sulphate (0.5% w/v), read-out: Solubility): 240 µg/mL (≈ 557 µM)
solubility ([8]; water with sodium lauryl sulphate 1.0% w/v, aqueous with cosolvent or surfactant or cyclodextrin, Water-Sodium lauryl sulphate (1.0% w/v), read-out: Solubility): 377 µg/mL (≈ 876 µM)
solubility ([8]; water, read-out: Solubility): 3 µg/mL (≈ 6.97 µM)

CC(=O)O[C@H]1C(=O)[C@@]2(C)[C@H]([C@H](OC(=O)c3ccccc3)[C@]3(O)C[C@H](OC(=O)[C@H](O)[C@@H](NC(=O)c4ccccc4)c4ccccc4)C(C)=C1C3(C)C)[C@]1(OC(C)=O)CO[C@@H]1C[C@@H]2O [Taxol, paclitaxel, reference compound]
relative tumor growth ([1]; Taxol 10 mg/kg/day i.p. day 1-5 (Veh/Taxo)): 183%
effect on tumor growth ([1]; Taxol injections alone): reduced the tumor growth
